Key:
[1] = test system: HA-CAR T cells and CD19-CAR T cells; test: Seahorse analysis of mitochondrial fitness; cell size; assay type: cell-based
Experimental: To measure mitochondrial fitness in CAR T cells cultured in the presence or absence of INO, Seahorse analysis was performed.

[2] = test system: HA-CAR T cells
From the text: 9D: Levels of expression of indicated purinergic pathway gene transcripts from bulk RNA samples. Data are mean+/−s.e.m. from n=3 donors. P values determined by paired two-tailed t-tests. *, P<0.05; **, P<0.01; ***, P<0.001; **** P<0.0001. […] Histograms of representative donor (Left) and pooled data from n=8 donors shown (Right). P values determined by paired two-tailed t-tests. *, P<0.05; **, P<0.01; ***, P<0.001; ****, P<0.0001. 9F: UMAP plots of day 14 CD8+ (top) and CD4+ (bottom) HA-or HA-INO-CAR T cells analyzed using CyTOF. 9,000 or maximum of CD4+ CAR T cells from each condition from n=4 donors were organized by their combined expression of 5 exhaustion markers. Graphs represent median expression of indicated markers. P values determined by paired two-tailed t-tests. *, P<0.05; **, P<0.01; ***, P<0.001; ****, P<0.0001. 9G: Histograms showing GD2 antigen expressed by Nalm6-GD2 and 143b tumor lines with corresponding number of molecules per cell. 9H: Co-cultures of HA, HA-ADA-O/E-or HA grown in INO stimulated with Nalm6-GD2 (1:8 E: T) at day 14 post-activation. Tumor GFP fluorescence intensity was normalized to the first time point (duplicate or triplicate wells). Representative donor of n=2 donor shown. P values determined by two-way ANOVA with Dunnett's multiple comparisons test. *, P<0.05; **, P<0.01; ***, P<0.001; ****, P<0.0001. […] Error bars represent mean+SD of triplicate wells from one representative donor of n=1-2 donors. P values determined by unpaired two-tailed t-tests. *, P<0.05; **, P<0.01; ***, P<0.001; ****, P<0.0001. 9J: IL-2 release after 24h of CD19.4-1BBz-CAR T cells stimulated with Nalm6 tumor line alone or in co-culture with HA-or HA-INO-CAR T cells at 1:1:1 ratio. Data are mean+SD from triplicate wells. N=1 donor. *, P<0.05; **, P<0.01; *** P<0.001; ****, P<0.0001. […] Data polled from n=5 donors from independent experiments. P values determined by paired two-tailed t-tests *, P<0.05; **, P<0.01; ***, P<0.001; ****, P<0.0001. […] Tumor GFP fluorescence intensity was normalized to the first time point (duplicate or triplicate wells). Representative donor of n=3 donor shown. P values determined by two-way ANOVA with Dunnett's multiple comparisons test. *, P<0.05; **, P<0.01; ***, P<0.001; ****, P<0.0001. 9N: Co-cultures of CD19, or CD19-CAR T cells grown in INO media starting from indicated days post-activation and Nalm6-GD2 (1:10 E: T) starting at day 15 post-activation. Tumor GFP fluorescence intensity was normalized to the first time point (duplicate or triplicate wells). Representative donor of n=2 donor shown. P values determined by two-way ANOVA with Dunnett's multiple comparisons test. *, P<0.05; **, P<0.01; ***, P<0.001; ****, P<0.0001. […] Data are mean±s.e.m. of n=3-5 donors. P values determined by paired two-tailed t-tests. *, P<0.05; **, P<0.01; ***, P<0.001; ****, P<0.0001.

O=c1[nH]cnc2c1ncn2[C@@H]1O[C@H](CO)[C@@H](O)[C@H]1O [inosine, Inosine]
metabolic profile of non-tonic signaling CD19-CAR T cells ([1]; Seahorse, day 11): memory-like metabolic profile
basal oxygen consumption rate (Basal OCR) ([1]; day 11, control vs INO cultured cells): did not differ
size of the cells ([1]; day 13 post-activation): increased size
expression of ornithine decarboxylase (ODC), spermidine synthase and elF5A ([2]; HA vs HA-INO): increased expression
genes associated with TCR signaling ([2]; HA vs HA-INO): diminished expression
genes associated with glutaminolysis and polyamine synthesis ([2]; HA vs HA-INO, day 14): increased expression
genes associated with glycolysis and glucose driven metabolism (PFKP, ALDOA, GAPDH, PGK, ENO1) ([2]; HA vs HA-INO, day 14): downregulation
variance in principal component analysis attributed to INO exposure ([2]; bulk RNA-seq PCA): 41.3%
